Test results: PMC10147923, “Pain-causing stinging nettle toxins target TMEM233 to modulate NaV1.7 function” (Nature Communications, 2023)
Where “and” joins values, the source holds several entries; their conditions need not be identical. Identical values can stand only once. Like-named read-outs stand apart in the source and are kept apart here. Positions of bridges follow the written chain, without caps; N, C: chain ends. Residues, ends and D or L forms follow the SMILES beside them.

What was measured:
[1] = test system: DRG neurons from wild-type C57BL/6 mice; experiment: Calcium imaging, wild-type DRG neurons; format: cell-based, mouse
Description: DRG from all spinal levels were isolated from male and female mice (wild-type C57BL/6 J, Tmem233^Cre/Cre, NaV1.8^Cre/Cre, NaV1.9^−/− or littermate controls) as previously described[36],[38],[39]. For Ca^2+ imaging experiments, DRG neurons were dissociated following incubation with 1% collagenase type IV (Worthington, New Jersey, USA) for 1.5 h (37 °C, 5% CO2) and 2.5% trypsin (Sigma-Aldrich, Montana, USA) for 15 min and resuspended in Dulbecco’s modified Eagle’s medium (DMEM) (Sigma-Aldrich, New South Wales, Australia) supplemented with 10% fetal bovine serum (FBS) (Thermofisher, Massachusetts, USA) and penicillin/streptomycin (Thermofisher, Massachusetts, USA). Following plating in 96-well poly-D-lysine–coated culture plates, isolated neurons were incubated for 24 h at 37 °C with 5% CO2 prior to imaging.
Dissociated DRG neurons from Tmem233^Cre/Cre and C57BL/6 mice were plated on PDL-coated 96-well black-walled imaging plates and loaded with Fluo-4 AM calcium indicator (5 μM) (Invitrogen, Massachusetts, USA) for 1 h in culture medium. Cells were washed with Hanks’ balanced salt solution containing 20 mM HEPES and then transferred to the recording chamber of a Nikon Ti-E Deconvolution inverted microscope equipped with a Lumencor Spectra LED light source. Fluorescence images (excitation, 485 nm; emission, 521 nm) were acquired at 1 frame per second using a ×20 objective. Following the recording of baseline fluorescence (20 s), cells were consecutively exposed to buffer control (0.1% BSA, t = 30 s), ExTxA (10 nM, t = 60 s), and 30 mM KCl (30 mM, t = 210 s). […] Cells responding to buffer control were excluded from analysis.

hNaV1.5 = experiment: Persistent current, HEK293-hNaV1.5/β1; format: cell-based, human; settings: ExTxA 1 µM
NaV1.7/PRRT2 = NaV1.7/PRRT2 (Homo sapiens, UniProt Q15858+Q7Z6L0); format: cell-based
HEK293-NaV1.7 cells = format: cell-based, human; settings: ExTxA 1 µM; for ΔF/F in NaV1.7 HEK293: mean, n = 3
Description: HEK293-NaV1.7 cells were transfected with TMEM233, CRELD1, LMAN2L, MMGT1, RNF121 and STT3B and co-transfected with five plasmids coding for the Glycosylphosphatidylinositol (GPI) complex (GPAA1, PIGK, PIGS, PIGU, PIGT) using Lipofectamine 2000. After 24 h, transfected cells were harvested and plated at a density of 10,000–15,000 cells per well on black-walled 384-well imaging plates. Plated cells were cultured for a further 24 h at 37 °C and 5% CO2. FLIPR (Fluorescent Imaging Plate Reader) Red membrane potential assay dye (Molecular Devices, California, USA) was diluted in physiological salt solution according to the manufacturer’s instructions (PSS, in mM: NaCl 140, glucose 11.5, HEPES 10, KCl 5.9, MgCl2 1.4, NaH2PO4 1.2, NaHCO3 5, CaCl2 1.8, pH 7.4). Growth medium was removed from the plate and replaced with 20 µL of FLIPR Red membrane potential assay dye per well and incubated in the dark at 37 °C for 60 min. […] Fluorescence responses to ExTxA were computed as the maximum change in fluorescence over baseline (ΔF/F0) using ScreenWorks (Molecular Devices, Version 5.1.2.94).

Drosophila melanogaster = format: in vivo; settings: injection 0.5 nmol, affected/total
Description: To test for insecticidal activity, we injected ExTxA into three-day old Drosophila melanogaster females (average weight 0.875 mg). In total 77 D. melanogaster were used for this study: 52 individuals were each injected with 0.5 nmol (50 nL of a […] solution) ExTxA, while 25 individuals served as control group and were injected with vehicle control (3% acetonitrile, 0.1% bovine serum albumin in water) and scored by a blinded observer.

TE-671 cells = settings: ExTxA 1 µM + veratridine 5 µM + ouabain 20 nM
NaV1.8 = format: cell-based, mouse
NaV1.7/TMEM233 [2] = biological target: T1, NaV1.7/TMEM233 (Homo sapiens, UniProt B4DJY2+Q15858); experiment: Ramp currents with ExTxA, HEK293 NaV1.7/TMEM233; format: cell-based
NaV1.7/TMEM233 [3] = biological target: T1, NaV1.7/TMEM233; format: cell-based

Sequence of NaV1.7/PRRT2 (Q7Z6L0 whole entry): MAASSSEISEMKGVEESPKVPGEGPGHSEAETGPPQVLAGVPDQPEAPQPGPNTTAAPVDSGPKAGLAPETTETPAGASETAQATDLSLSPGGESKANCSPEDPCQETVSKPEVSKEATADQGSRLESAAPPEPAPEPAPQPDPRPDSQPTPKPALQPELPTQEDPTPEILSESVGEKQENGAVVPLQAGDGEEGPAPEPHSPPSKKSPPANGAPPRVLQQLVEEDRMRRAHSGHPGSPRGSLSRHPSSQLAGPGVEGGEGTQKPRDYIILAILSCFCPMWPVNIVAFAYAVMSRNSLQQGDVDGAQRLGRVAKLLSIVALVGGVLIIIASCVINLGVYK
Sequence of NaV1.7/PRRT2 (Q07699 19-218, further chain): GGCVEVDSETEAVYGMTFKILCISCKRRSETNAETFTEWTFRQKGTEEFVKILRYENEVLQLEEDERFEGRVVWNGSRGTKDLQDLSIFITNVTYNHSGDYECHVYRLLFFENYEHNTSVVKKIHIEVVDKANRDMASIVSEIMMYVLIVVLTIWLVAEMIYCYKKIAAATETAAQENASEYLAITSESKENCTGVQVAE
Sequence of NaV1.7/PRRT2 (Q15858 whole entry): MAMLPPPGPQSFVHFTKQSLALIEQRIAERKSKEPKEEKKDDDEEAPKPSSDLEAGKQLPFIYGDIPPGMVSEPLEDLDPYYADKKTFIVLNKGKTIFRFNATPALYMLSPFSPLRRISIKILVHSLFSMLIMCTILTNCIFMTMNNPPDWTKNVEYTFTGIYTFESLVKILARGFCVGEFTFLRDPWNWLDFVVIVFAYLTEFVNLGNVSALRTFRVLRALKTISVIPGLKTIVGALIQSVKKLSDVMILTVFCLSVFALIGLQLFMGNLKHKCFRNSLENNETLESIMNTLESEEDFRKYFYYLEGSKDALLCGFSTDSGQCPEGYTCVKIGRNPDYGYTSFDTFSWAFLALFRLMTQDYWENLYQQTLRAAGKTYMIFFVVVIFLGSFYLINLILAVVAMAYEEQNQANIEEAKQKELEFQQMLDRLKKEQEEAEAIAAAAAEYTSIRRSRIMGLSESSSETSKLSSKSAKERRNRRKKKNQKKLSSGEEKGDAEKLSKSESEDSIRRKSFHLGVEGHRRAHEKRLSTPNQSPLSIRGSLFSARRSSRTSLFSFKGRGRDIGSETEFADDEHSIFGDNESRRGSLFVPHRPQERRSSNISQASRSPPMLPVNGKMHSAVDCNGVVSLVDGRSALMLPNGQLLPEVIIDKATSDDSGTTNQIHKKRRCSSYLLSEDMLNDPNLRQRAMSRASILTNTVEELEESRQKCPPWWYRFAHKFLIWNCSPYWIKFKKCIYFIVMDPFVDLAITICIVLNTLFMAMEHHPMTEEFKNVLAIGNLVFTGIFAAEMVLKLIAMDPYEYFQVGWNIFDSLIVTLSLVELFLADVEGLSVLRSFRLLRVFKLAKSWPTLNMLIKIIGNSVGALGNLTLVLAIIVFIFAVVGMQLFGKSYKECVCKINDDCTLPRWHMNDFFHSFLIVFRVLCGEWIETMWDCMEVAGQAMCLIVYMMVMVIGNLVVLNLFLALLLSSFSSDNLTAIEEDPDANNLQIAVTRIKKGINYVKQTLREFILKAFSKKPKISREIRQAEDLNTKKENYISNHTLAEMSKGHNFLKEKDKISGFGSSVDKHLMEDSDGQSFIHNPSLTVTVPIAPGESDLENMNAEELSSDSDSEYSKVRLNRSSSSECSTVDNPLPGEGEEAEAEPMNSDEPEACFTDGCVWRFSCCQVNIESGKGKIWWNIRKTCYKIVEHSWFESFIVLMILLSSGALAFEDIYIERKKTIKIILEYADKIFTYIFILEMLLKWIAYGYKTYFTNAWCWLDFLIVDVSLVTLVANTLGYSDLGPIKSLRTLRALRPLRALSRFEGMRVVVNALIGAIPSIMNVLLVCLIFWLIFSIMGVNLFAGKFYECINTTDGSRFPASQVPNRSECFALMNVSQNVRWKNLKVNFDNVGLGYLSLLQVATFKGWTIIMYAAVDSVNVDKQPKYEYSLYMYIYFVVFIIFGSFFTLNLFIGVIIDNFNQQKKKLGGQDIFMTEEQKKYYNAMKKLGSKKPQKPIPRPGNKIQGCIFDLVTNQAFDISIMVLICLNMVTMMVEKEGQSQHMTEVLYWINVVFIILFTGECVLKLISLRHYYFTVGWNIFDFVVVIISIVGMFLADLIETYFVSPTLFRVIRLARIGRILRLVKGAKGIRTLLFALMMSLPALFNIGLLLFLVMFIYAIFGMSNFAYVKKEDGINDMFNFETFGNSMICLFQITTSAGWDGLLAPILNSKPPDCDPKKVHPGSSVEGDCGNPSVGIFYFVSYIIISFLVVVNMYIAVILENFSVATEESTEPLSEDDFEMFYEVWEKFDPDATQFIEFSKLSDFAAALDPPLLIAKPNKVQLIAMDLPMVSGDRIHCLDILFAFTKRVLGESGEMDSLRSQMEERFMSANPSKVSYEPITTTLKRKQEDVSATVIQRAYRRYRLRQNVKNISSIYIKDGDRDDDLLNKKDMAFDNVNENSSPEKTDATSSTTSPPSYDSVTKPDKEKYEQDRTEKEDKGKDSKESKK

**Q.** What does the source list for `CC[C@H](C)[C@@H]1NC(=O)[C@H](CCCNC(=N)N)NC(=O)[C@H](Cc2ccccc2)NC(=O)[C@H](CC(C)C)NC(=O)[C@H](CO)NC(=O)[C@@H]2CSSC[C@@H]3NC(=O)[C@H]([C@@H](C)O)NC(=O)[C@H](CSSC[C@H](NC(=O)[C@H](CCCNC(=N)N)NC(=O)[C@@H]4CCCN4C(=O)[C@@H](N)CC(C)C)C(=O)N[C@@H](CC(=O)O)C(=O)N[C@@H](CO)C(=O)N4CCC[C@H]4C(=O)N[C@@H](Cc4ccccc4)C(=O)N2)NC(=O)[C@H](CCCCN)NC(=O)[C@H](CC(=O)O)NC(=O)CNC(=O)[C@H](CSSC[C@@H](C(=O)N[C@H](C(=O)N2CCC[C@H]2C(=O)N[C@@H](CC(=O)O)C(=O)N[C@H](C(=O)O)C(C)C)C(C)C)NC(=O)[C@H](CC(C)C)NC(=O)CNC(=O)[C@H](Cc2ccccc2)NC(=O)[C@H]([C@@H](C)CC)NC(=O)[C@@H]2CCCN2C(=O)[C@H](CC(C)C)NC(=O)[C@@H]2CCCN2C(=O)[C@H](C(C)C)NC3=O)NC(=O)[C@H](CC(C)C)NC(=O)CNC1=O` [ExTxA, excelsatoxin A] (H-LPRCDSPFCSLFRIGLCGDKCTCVPLPIFGLCVPDV-OH; disulfide 4-21, 9-23, 17-32)?
**A.** ExTxA-induced DRG Ca2+ responses ([1]; ExTxA 10 nM, wt, Fluo-4, >1.5-fold increase, mean ± SEM, n = 10 wells): 53.20 ± 1.789 % neurons activated; calcium imaging response (Fig. 3f) ([1]; WT, individual values, one line each (n = 10)): 51.5152 and 56.8182 and 58.0645 and 43.75 and 44.8276 and 50.7042 and 59.292 and 51.8519; calcium imaging response (Fig. 3f), Mean ([1]; WT, mean, number of values 10, Std. Deviation 5.657, SEM 1.789): 53.2; calcium imaging response (Fig. 3f), Median ([1]; WT, median, number of values 10): 53.9; persistent current (I40 ms/Ipeak) (hNaV1.5; individual cells): 0.001512 and 0.003695 and 0.000623 and -0.00019 and 0.001997 and -0.00321 and -0.00096 and -7.2e-5 and 0.000901 and 0.000208 and 0.000397; Δ persistent current (I40 ms/Ipeak; buffer cf. ExTxA) (hNaV1.5; mean): 0.0004 ± 0.0005 and 0.0003926; LogEC50 (NaV1.7/PRRT2; Nav1.7/PRRT2, 95% CI -6.892 to -6.214, Fig 4g): -6.331; HillSlope (NaV1.7/PRRT2; Nav1.7/PRRT2, Fig 4g): 0.9384; Top (NaV1.7/PRRT2; Nav1.7/PRRT2, best-fit, constraint Top < 1, Fig 4g): 0.7711; ExTxA-induced currents with PRRT2 (NaV1.7/PRRT2; co-expression with NaV1.7): resulted in ExTxA-induced persistent currents; ΔF/F in NaV1.7 HEK293 (HEK293-NaV1.7 cells; Control (untransfected NaV1.7)): 0.016 ± 0.013 and 0.01598; DF/F (HEK293-NaV1.7 cells; GPAA1+PIG K, S, T, U, replicate 1): -0.0084; DF/F (HEK293-NaV1.7 cells; GPAA1+PIG K, S, T, U, replicate 2): -0.00023; DF/F (HEK293-NaV1.7 cells; GPAA1+PIG K, S, T, U, replicate 3): -0.01147; ΔF/F in NaV1.7 HEK293 (HEK293-NaV1.7 cells; Lman2L): 0.014 ± 0.0048 and 0.01413; DF/F (HEK293-NaV1.7 cells; Lman2L, replicate 1): 0.02361; DF/F (HEK293-NaV1.7 cells; Lman2L, replicate 2): 0.01087; DF/F (HEK293-NaV1.7 cells; Lman2L, replicate 3): 0.007914; DF/F (HEK293-NaV1.7 cells; Mmgt1, replicate 1): -0.00761; DF/F (HEK293-NaV1.7 cells; Mmgt1, replicate 2): -0.00711; DF/F (HEK293-NaV1.7 cells; Mmgt1, replicate 3): -0.00296; DF/F (HEK293-NaV1.7 cells; RNF121, replicate 1): -0.01721; DF/F (HEK293-NaV1.7 cells; RNF121, replicate 2): -0.01119; DF/F (HEK293-NaV1.7 cells; RNF121, replicate 3): 0.007423; ΔF/F in NaV1.7 HEK293 (HEK293-NaV1.7 cells; Stt3b): 0.013 ± 0.00098 and 0.01262; DF/F (HEK293-NaV1.7 cells; Stt3b, replicate 1): 0.01077; DF/F (HEK293-NaV1.7 cells; Stt3b, replicate 2): 0.013; DF/F (HEK293-NaV1.7 cells; Stt3b, replicate 3): 0.01408; DF/F (HEK293-NaV1.7 cells; Untransfected Nav1.7, replicate 1): 0.03099; DF/F (HEK293-NaV1.7 cells; Untransfected Nav1.7, replicate 2): -0.01092; DF/F (HEK293-NaV1.7 cells; Untransfected Nav1.7, replicate 3): 0.02788; paralysis (Drosophila melanogaster; after 15 min, control 1/25): 2/52; death (Drosophila melanogaster; after 2 h, control 0/25): 1/52; effect of gene knockdown on ExTxA cytotoxicity (TE-671 cells): prevented by the knockdown of SCN9A (the gene encoding the NaV1.7 α subunit) as well as ten other genes (RNF121, GPAA1, PIGT, CRELD1, PIGK, STT3B, TMEM233, PIGS, MMGT1, and LMAN2L), and exacerbated by knockdown of SPAG5, TMEM161B and NEDD4L; DRG NaV1.8 Δ persistent current (I40 ms/Ipeak) (NaV1.8): 0.050 ± 0.015; Ramp current (0.2 mV/s) (NaV1.7/TMEM233 [2]): -1.952 ± 0.950 nA; Ramp current (NaV1.7/TMEM233 [2]; NaV1.7-TMEM233 + ExTxA (100 nM), individual cells): -2.267 and -0.5155 and -0.3095 and -7.0521 and -0.7027 and -0.3607 and -2.095 and -0.6283; currents induced by slow voltage-ramps (NaV1.7/TMEM233 [2]; extracellular ExTxA): an increase of currents induced by slow voltage-ramps; Best-fit parameter Bottom (NaV1.7/TMEM233 [3]): 0.0729; Best-fit parameter Hill slope (NaV1.7/TMEM233 [3]): 1.156; Best-fit parameter Top (NaV1.7/TMEM233 [3]): 0.7692; Top (NaV1.7/TMEM233 [3]): 0.7845; persistent current, Predicted (LS) mean diff. (NaV1.7/TMEM233 [3]): -0.5401; potency with TMEM233 versus PRRT2 or TRARG1 (NaV1.7/TMEM233 [3]): significantly more potent when co-expressed with TMEM233; effect on inactivation, toxin in extracellular solution (NaV1.7/TMEM233 [3]; ExTxA 100 nM in ECS): robustly inhibited inactivation; effect on inactivation, toxin in intracellular solution (NaV1.7/TMEM233 [3]; ExTxA 100 nM in ICS): did not affect inactivation; Difference between means (D - C), TMEM233 minus control (NaV1.7/TMEM233 [3]; ExTxA 1 µM): -1468 ± 228.9 pA; LogEC50 (NaV1.7/TMEM233 [3]; Nav1.7/TMEM233, 95% CI -8.367 to -8.102, Fig 4g): -8.24; HillSlope (NaV1.7/TMEM233 [3]; Nav1.7/TMEM233, Fig 4g): 0.9284
